Experimental data taken from patent publication US10562890B2, “Cancer therapeutics” (UNIVERSITY OF VIRGINIA PATENT FOUNDATION, priority 2014, dated 2020).

Columns and labels:
[1] = target: CBFβ binding to the RUNX1 Runt domain (Homo sapiens (Human), UniProt Q13951); test: FRET assay, inhibition of CBFβ binding to the RUNX1 Runt domain; conditions: inhibition of wild-type CBFβ binding to the RUNX1 Runt domain; NA = not active
From the text: Fluorescence Resonance Energy Transfer (FRET) Assay:
As described in U.S. Pat. No. 8,748,618 and published PCT application WO2010/132684, a FRET assay can be used to effectively monitor the inhibition of CBF binding to the Runt domain of RUNX proteins (as well as for CBFβ-SMMHC binding to the Runt domain of RUNX proteins). For the assay, the green fluorescent protein derivative Cerulean is fused to the N-terminus of the Runt domain and the green fluorescent protein derivative Venus to the N-terminus of CBFβ (Gorczynski, M. J., J. Grembecka, et al. (2007), “Allosteric inhibition of the protein-protein interaction between the leukemia-associated proteins Runx1 and CBFbeta.” Chem Biol 14(10): 1186-97), or to CBFβ-SMMHC (Illendula, A. et al. Chemical biology. A small-molecule inhibitor of the aberrant transcription factor CBFbeta-SMMHC delays leukemia in mice. Science 347, 779-784, doi:10.1126/science.aaa0314 (2015)). The ratio of the emission intensities at 525 nm and 474 nm, measured after excitation at 433 nm, was used as the readout in this assay. The dynamic range for the FRET assay was determined by adding a 30-fold excess of untagged CBFβ (or CBFβ-SMMHC) to the assay and the associated change in the FRET ratio was defined as 100% inhibition.

MCF10A-5E cells = test: Multiacini formation in 3D culture of MCF10A-5E cells; type: cell-based; conditions: shRUNX1 or control cells, 3D culture 10-11 days, compared to carrier control or Al-4-88
From the text: CBFβ inhibitors altered acinar morphogenesis of the basal-like (triple negative) breast epithelial cells and blocked survival of basal-like breast cancer cells in 3D organotypic culture. To evaluate whether CBFβ inhibition would influence the multicellular organization of basal-like breast epithelia, 3D culture of MCF10A-5E cells was used. Knockdown of RUNX1 in these cells delayed proliferation arrest and promoted the formation of nonspherical acini, indicating a role for RUNX1 during morphogenesis.
The multiacini resulting from CBFβ inhibition were not radially symmetric, thereby arguing against a general defect in cell polarity or proliferation arrest. Instead, the inhibitors appeared to be initiating a nascent branching program that is reminiscent of when TGFβ-family signaling is impaired.
FIG. 9A: MCF10A-5E cells stably expressing shRUNX1 or shGFP control were grown in 3D culture for 10-11 days with the indicated compounds and imaged by Brightfield microscopy. The total number of multiacini per chamber was counted and scaled to the shGFP DMSO control. Data are shown as the mean±SEM of eight independent cultures.

[2] = test system: OVCAR4 ovarian cancer cells; test: CellTiter-Glo viability assay, OVCAR4; type: cell-based; conditions: Homo sapiens, OVCAR-4, OVCAR4, 72 hours
Experimental: OVCAR8 cells were grown in RPMI 1640 supplemented with 10% Fetal bovine serum and 1% antibiotics. OVCAR4 cells were grown in RPMI 1640 supplemented with 20% fetal bovine serum and 1% antibiotics. Cells growing at approximately 70% confluency were trypsinized and 2500 cells per well were re-plated in opaque bottomed 96-well plates.
24 hours after plating, chemical compounds diluted in DMSO were mixed with cell growth media and added to cells. Compounds mixed with media were made at 10× concentration. Cells treated with compounds were incubated for 72 hours in a humidified incubator at 37° C. supplemented with 5% CO2. Percentage of cells viable after 72 hours was determined by CellTitler-Glo according to the manufacturer's instructions. Data analysis was performed using GraphPad 5.0.
In the graph, the ordinate represents % inhibition and the abscissa represents the log value of the concentration of the compound.

Chain of CBFβ binding to the RUNX1 Runt domain (Q13951 1-141): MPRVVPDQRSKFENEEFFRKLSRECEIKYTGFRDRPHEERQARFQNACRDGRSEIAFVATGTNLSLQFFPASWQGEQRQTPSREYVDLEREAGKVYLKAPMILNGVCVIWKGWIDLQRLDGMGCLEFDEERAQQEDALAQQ

`COc1cccnc1-c1nc2cc(OC(F)(F)F)ccc2[nH]1` [Al-10-104] was tested, and the IC50 [1] was 2.65 ± 0.18 µM, the “formation of multiacinar structures” value (MCF10A-5E cells) was “dramatic increase” and the IC50 [2] was 5.86 µM.
